The values that follow come from ChEMBL document CHEMBL2311426, “Synthesis and antibacterial activity of novel water-soluble nocathiacin analogs” (Bioorg Med Chem Lett, 2013).

The nature of data set [1]: Aqueous solubility of the compound in water containing 5% dextrose at pH 4. It is filed as physicochemical.
In data set [2] the test system is Staphylococcus aureus. Briefly: Antibacterial activity against Staphylococcus aureus MB2865 infected in iv dosed mouse assessed as >= log10 cfu kidney burden reduction administered bid after 24 hrs. The class given is functional.
The subject of the next data set is Enterococcus faecalis. The data set can be described thus: Antibacterial activity against Enterococcus faecalis C21560 by turbidity method. It is filed as functional. The settings on record: read-out: MIC100.
Another data set concerns Streptococcus pneumoniae. Briefly: Antibacterial activity against Streptococcus pneumoniae CL2883 by turbidity method. As to conditions: read-out: MIC100. The class given is functional.
The subject of data set [3] is Staphylococcus aureus. The data set can be described thus: Antibacterial activity against Staphylococcus aureus MB2865 by turbidity method. It is filed as functional. As to conditions: read-out: MIC100.
For data set [4], the system named is Staphylococcus aureus. Briefly: Ratio of vancomycin ED99 to compound ED99 for Staphylococcus aureus MB2865 infected in iv dosed mouse. The class given is functional.
For data set [5], the system named is Staphylococcus aureus. Briefly: Antibacterial activity against Staphylococcus aureus MB2865 infected in mouse assessed as log kidney burden reduction administered at 4 mg/kg, iv bid after 24 hrs relative to control. It is filed as functional.

Values after ≈ are worked out from the molar mass of the structure shown. Where only a bound is given, the exact number is not on record here.

As a reminder, the solubility is the dissolved amount per volume that the medium holds. In data set [1], `CO/C(C)=C1/NC(=O)[C@H]([C@@H](C)O)NC(=O)c2csc(n2)-c2cc(O)c(-c3nc(CN)cs3)nc2-c2csc(n2)[C@@H]2COC(=O)c3c4c5c(cccc5n3O)COC(=O)[C@@H](O[C@H]3C[C@](C)(O)[C@H](N(C)C)[C@H](C)O3)[C@@H](OC4)[C@H](NC(=O)c3csc1n3)c1nc(cs1)C(=O)N2.O=C(O)C(F)(F)F` displayed a solubility greater than 10000 µg/mL.
As to `CO/C(C)=C1/NC(=O)[C@H]([C@@H](C)O)NC(=O)c2csc(n2)-c2cc(O)c(-c3nc(CNC(=O)CCN4CCOCC4)cs3)nc2-c2csc(n2)[C@@H]2COC(=O)c3c4c5c(cccc5n3O)COC(=O)[C@@H](O[C@H]3C[C@](C)(O)[C@H](N(C)C)[C@H](C)O3)[C@@H](OC4)[C@H](NC(=O)c3csc1n3)c1nc(cs1)C(=O)N2`, the ED99 in the data set with Staphylococcus aureus [2] was greater than 0.5 mg/kg. Also, the MIC was 0.12 µg/mL (≈ 0.0802 µM) in the data set with Enterococcus faecalis, 0.0075 µg/mL (≈ 0.00501 µM) in the data set on Streptococcus pneumoniae and 0.06 µg/mL (≈ 0.0401 µM) in the data set on Staphylococcus aureus [3].
Consider `CO/C(C)=C1/NC(=O)[C@H]([C@@H](C)O)NC(=O)c2csc(n2)-c2cc(O)c(-c3nc(CNC(=O)C(C)NC(N)=O)cs3)nc2-c2csc(n2)[C@@H]2COC(=O)c3c4c5c(cccc5n3O)COC(=O)[C@@H](O[C@H]3C[C@](C)(O)[C@H](N(C)C)[C@H](C)O3)[C@@H](OC4)[C@H](NC(=O)c3csc1n3)c1nc(cs1)C(=O)N2` (stereo not given in full), for which the Ratio in the data set on Staphylococcus aureus [4] was determined as 200. Moreover, the ED99 in the data set with Staphylococcus aureus [2] was 0.02 mg/kg. For the same compound, the results for the MIC with Enterococcus faecalis, in the data set with Streptococcus pneumoniae and in the data set with Staphylococcus aureus [3] were 0.25 µg/mL (≈ 0.17 µM), 0.0038 µg/mL (≈ 0.00259 µM) and 0.06 µg/mL (≈ 0.0409 µM), respectively.
Take `CO/C(C)=C1/NC(=O)[C@H]([C@@H](C)O)NC(=O)c2csc(n2)-c2cc(O)c(-c3nc(CNC(=O)CN4CCN(C)CC4)cs3)nc2-c2csc(n2)[C@@H]2COC(=O)c3c4c5c(cccc5n3O)COC(=O)[C@@H](O[C@H]3C[C@](C)(O)[C@H](N(C)C)[C@H](C)O3)[C@@H](OC4)[C@H](NC(=O)c3csc1n3)c1nc(cs1)C(=O)N2`: in the data set on Staphylococcus aureus [5], the CFU worked out at 1.08. Besides, the ED99 in the data set with Staphylococcus aureus [2] worked out at 0.28 mg/kg. In addition, the values for the MIC in the data set on Enterococcus faecalis, in the data set with Streptococcus pneumoniae and in the data set on Staphylococcus aureus [3] were 0.09 µg/mL (≈ 0.0602 µM), 0.0007 µg/mL (≈ 0.000468 µM) and 0.0375 µg/mL (≈ 0.0251 µM), respectively.
Consider `CO/C(C)=C1/NC(=O)[C@H]([C@@H](C)O)NC(=O)c2csc(n2)-c2cc(O)c(-c3nc(CNC(=O)CN4CCOCC4)cs3)nc2-c2csc(n2)[C@@H]2COC(=O)c3c4c5c(cccc5n3O)COC(=O)[C@@H](O[C@H]3C[C@](C)(O)[C@H](N(C)C)[C@H](C)O3)[C@@H](OC4)[C@H](NC(=O)c3csc1n3)c1nc(cs1)C(=O)N2`, for which, in the data set on Staphylococcus aureus [2], the ED99 is greater than 0.5 mg/kg. For the same compound, the MIC in the data set on Enterococcus faecalis stood at 0.015 µg/mL (≈ 0.0101 µM); in the data set on Streptococcus pneumoniae, 0.00046 µg/mL (≈ 0.00031 µM); with Staphylococcus aureus [3], 0.0075 µg/mL (≈ 0.00506 µM).
As for `CO/C(C)=C1/NC(=O)[C@H]([C@@H](C)O)NC(=O)c2csc(n2)-c2cc(O)c(-c3nc(CNC(=O)CN(C)C)cs3)nc2-c2csc(n2)[C@@H]2COC(=O)c3c4c5c(cccc5n3O)COC(=O)[C@@H](O[C@H]3C[C@](C)(O)[C@H](N(C)C)[C@H](C)O3)[C@@H](OC4)[C@H](NC(=O)c3csc1n3)c1nc(cs1)C(=O)N2`, the ED99 in the data set with Staphylococcus aureus [2] is greater than 0.5 mg/kg. The figures for the MIC with Enterococcus faecalis, in the data set with Streptococcus pneumoniae and in the data set with Staphylococcus aureus [3] were 0.25 µg/mL (≈ 0.174 µM), 0.0075 µg/mL (≈ 0.00521 µM) and 0.06 µg/mL (≈ 0.0417 µM), respectively.
Turning to `CO/C(C)=C1/NC(=O)[C@H]([C@@H](C)O)NC(=O)c2csc(n2)-c2cc(O)c(-c3nc(CNCc4cncnc4)cs3)nc2-c2csc(n2)[C@@H]2COC(=O)c3c4c5c(cccc5n3O)COC(=O)[C@@H](O[C@H]3C[C@](C)(O)[C@H](N(C)C)[C@H](C)O3)[C@@H](OC4)[C@H](NC(=O)c3csc1n3)c1nc(cs1)C(=O)N2`, in the data set with Staphylococcus aureus [2], the ED99 came out at 0.13 mg/kg. Further, the MIC worked out at 0.03 µg/mL (≈ 0.0207 µM) in the data set on Enterococcus faecalis, 0.0007 µg/mL (≈ 0.000484 µM) with Streptococcus pneumoniae and 0.0225 µg/mL (≈ 0.0156 µM) in the data set on Staphylococcus aureus [3].
With `CO/C(C)=C1/NC(=O)[C@H]([C@@H](C)O)NC(=O)c2csc(n2)-c2cc(O)c(-c3nc(CNCCO)cs3)nc2-c2csc(n2)[C@@H]2COC(=O)c3c4c5c(cccc5n3O)COC(=O)[C@@H](O[C@H]3C[C@](C)(O)[C@H](N(C)C)[C@H](C)O3)[C@@H](OC4)[C@H](NC(=O)c3csc1n3)c1nc(cs1)C(=O)N2`, the ED99 in the data set on Staphylococcus aureus [2] amounted to 0.32 mg/kg. The MIC with Enterococcus faecalis was determined as 0.06 µg/mL (≈ 0.0429 µM); in the data set with Streptococcus pneumoniae, 0.00046 µg/mL (≈ 0.000329 µM); in the data set with Staphylococcus aureus [3] it was 0.03 µg/mL (≈ 0.0215 µM).
Consider `CO/C(C)=C1/NC(=O)[C@H]([C@@H](C)O)NC(=O)c2csc(n2)-c2cc(O)c(-c3nc(CN(C)C)cs3)nc2-c2csc(n2)[C@@H]2COC(=O)c3c4c5c(cccc5n3O)COC(=O)[C@@H](O[C@H]3C[C@](C)(O)[C@H](N(C)C)[C@H](C)O3)[C@@H](OC4)[C@H](NC(=O)c3csc1n3)c1nc(cs1)C(=O)N2`, for which the ED99 with Staphylococcus aureus [2] is greater than 0.5 mg/kg. In addition, the MIC in the data set on Enterococcus faecalis was found to be 0.0075 µg/mL (≈ 0.00542 µM); in the data set with Streptococcus pneumoniae it was 0.00095 µg/mL (≈ 0.000687 µM); in the data set on Staphylococcus aureus [3], 0.03 µg/mL (≈ 0.0217 µM).
For `CO/C(C)=C1/NC(=O)[C@H]([C@@H](C)O)NC(=O)c2csc(n2)-c2cc(O)c(-c3nc(CN)cs3)nc2-c2csc(n2)[C@@H]2COC(=O)c3c4c5c(cccc5n3O)COC(=O)[C@@H](O[C@H]3C[C@](C)(O)[C@H](N(C)C)[C@H](C)O3)[C@@H](OC4)[C@H](NC(=O)c3csc1n3)c1nc(cs1)C(=O)N2`, the ED99 in the data set with Staphylococcus aureus [2] is greater than 0.5 mg/kg. In addition, the MIC came to 0.06 µg/mL (≈ 0.0443 µM) with Enterococcus faecalis, 0.00047 µg/mL (≈ 0.000347 µM) in the data set on Streptococcus pneumoniae and 0.077 µg/mL (≈ 0.0568 µM) in the data set on Staphylococcus aureus [3].
In the case of `CN[C@H](CC(C)C)C(=O)N[C@H]1C(=O)N[C@@H](CC(N)=O)C(=O)N[C@H]2C(=O)N[C@H]3C(=O)N[C@H](C(=O)N[C@H](C(=O)O)c4cc(O)cc(O)c4-c4cc3ccc4O)[C@H](O)c3ccc(c(Cl)c3)Oc3cc2cc(c3O[C@@H]2O[C@H](CO)[C@@H](O)[C@H](O)[C@H]2O[C@H]2C[C@](C)(N)[C@H](O)[C@H](C)O2)Oc2ccc(cc2Cl)[C@H]1O` [VANCOMYCIN], in the data set on Staphylococcus aureus [2], the ED99 amounted to 0.17 mg/kg.
